Data as given in patent US20140171438A1, “Hybrid Compounds And Methods Of Making And Using The Same” (CELLCEUTIX CORPORATION, priority 2012, published 2014).
Converted amounts (≈) assume the structure as drawn. Where two headings read alike, the source gives them in different places.

Assays:
Assay type in all cases: cell-based
[1] = system: E. Coli ATCC 25922; assay: Antimicrobial activity, MIC, modified microbroth dilution; conditions: Escherichia coli, read-out: MIC (expressed as MIC50) E. coli
Description: (§1) The compounds were screened for antimicrobial activity against a number of ATCC bacterial strains. Minimum Inhibitory Concentrations (MIC) of each of the compounds were determined using standard CLSI procedures modified by Hancock protocol against E. Coli ATCC 25922, Staphylococcus aureus ATCC 27660, Enterococcus faecalis ATCC 29212, Pseudomonas aeruginosa ATCC 10145, and Klebsiella pneumoniae ATCC 13883.
(§2) This procedure is a modification of the standard microbroth dilution assay recommended by the National Committee for Clinical Laboratory Standards (NCCLS) which has been developed for determining in vitro antimicrobial activities of cationic agents (Steinberg et al., Antimicrob. Agents Chemother., 1997, 41, 1738; and Yan et al., Antimicrob. Agents Chemother., 2001, 45, 1558). The modifications were made to minimize loss of the antimicrobial agent due to adsorption onto glass or plastic surfaces and by precipitation at high concentrations.
(§3) Three mL of Mueller-Hinton II Broth (cation-adjusted) was inoculated with 5 μL of frozen bacterial stock and incubated at 37° C. on a shaker platform (at 250 rpm) overnight. Compound stock solutions were prepared in DMSO and serial two-fold dilutions of compound were made in 0.01% acetic acid, 0.2% bovine serum albumin directly in the wells of the polypropylene plate at 10 μL/well. […] All samples were performed in duplicate. The overnight bacteria suspension was diluted to approximately 10^6 cfu/mL and inoculated into a polypropylene (Costar) 96-well round bottom plate (90 μL volumes). One set of control wells included broth-only samples with dilution buffer for testing sterility and providing blank values for the assay readings. Vehicle-control wells containing the bacterial suspension with DMSO (no compound) were also included. Following the overnight incubation (18 hours), cell growth was assessed by observing the presence of “acceptable growth”, defined by NCCLS as a ≧2 mm button or definite turbidity.
(§4) Actual results from a representative MIC assay are shown below in Table 1. Data is expressed as MIC50 in μg/mL. The bacterial isolates were as follows: E. coli (25922); S. aureus (27660); E. faecalis (29212); P. aeruginosa (10145); and K. pneumoniae (13883).

[2] = system: Pseudomonas aeruginosa ATCC 10145; assay: as above; conditions: read-out: MIC (expressed as MIC50) P. Aeruginosa
Description: as §1, §2, §3, §4

[3] = system: Enterococcus faecalis ATCC 29212; assay: as above; conditions: read-out: MIC (expressed as MIC50) E. faecalis
Description: as §1, §2, §3, §4

[4] = system: Klebsiella pneumoniae ATCC 13883; assay: as above; conditions: read-out: MIC (expressed as MIC50) K. Pnuemnoiae
Description: as §1, §2, §3, §4

[5] = system: Staphylococcus aureus ATCC 27660; assay: as above; conditions: read-out: MIC (expressed as MIC50) S. aureus
Description: as §1, §2, §3, §4

[6] = Cytotoxicity, colorimetric tetrazolium assay; conditions: one hour with compound in serum-free media
Description: Cytotoxicity of the compounds was evaluated in a colorimetric assay using a transformed human liver cell line (HepG2, HB-8065) and an embryonic mouse cell line (NIH/3T3 cells, CRL-1658). This assay measures the bioreduction of a novel tetrazolium compound to a soluble formazan product by viable cells. HepG2 cells were seeded in 96 well plates at 2×10^4 cells/well in MEM medium with 10% fetal bovine serum (FBS) for 24 hours prior to use. NIH/3T3 cells were seeded in 96 well plates at 2×10^4 cells/well in DMEM medium with 10% bovine calf serum (BCS) 24 hours prior to use. Cell monolayers were rinsed in serum-free media and incubated for one hour with the compound in serum-free media. After incubation, the media was replaced with serum supplemented media and live cells were measured using the Cell Titer 96 Aqueous […] (Promega, Madison, Wis.). EC50 values were determined using a four parameter logistic equation: Y=Bottom+(Top−Bottom)/(1+10̂((Log EC50−X)*HillSlope)). Actual results from a representative cytotoxicity assay are shown below in Table 2. Data is expressed as EC50 in μg/mL.

[7] = ATCC25922, E. coli (25922), 18 hours incubation
[8] = ATCC10145, P. aeruginosa (10145), 18 hours incubation
[9] = ATCC29212, E. faecalis (29212), 18 hours incubation
[10] = ATCC13883, K. pneumoniae (13883), 18 hours incubation
[11] = ATCC27660, S. aureus (27660), 18 hours incubation
[12] = mouse, NIH/3T3 cells (CRL-1658)

Row | MIC50 [1, 7] [µg/mL] | MIC50 [2, 8] [µg/mL] | MIC50 [3, 9] [µg/mL] | MIC50 [4, 10] [µg/mL] | MIC50 [5, 11] [µg/mL] | MIC [1, 7] [µg/mL] | MIC [2, 8] [µg/mL] | MIC [3, 9] [µg/mL] | MIC [4, 10] [µg/mL] | MIC [5, 11] [µg/mL] | SMILES | EC50 at 1 h ([6]; human, HepG2 cells (HB-8065)) [µg/mL] | EC50 at 1 h [6, 12] [µg/mL] | MIC50 ([1]; ATCC25922, 18 h) [µg/mL] | MIC50 ([2]; ATCC10145, 18 h) [µg/mL] | MIC50 ([3]; ATCC29212, 18 h) [µg/mL] | MIC50 ([4]; ATCC13883, 18 h) [µg/mL] | MIC50 ([5]; ATCC27660, 18 h) [µg/mL]
1 | 6.25 (≈ 7.84 µM) | 12.5 (≈ 15.7 µM) | 1.56 (≈ 1.96 µM) | 6.25 (≈ 7.84 µM) | 3.13 (≈ 3.93 µM) |  |  |  |  |  | N=C(N)NCCCCC(=O)Nc1cc(C(F)(F)F)cc(NC(=O)Nc2ccc(Oc3ccc(NCCN)c(C(F)(F)F)c3)c(CCCN)c2)c1O[C@@H]1CCNC1 [Compound 109, N-[3-[[4-[4-(2-aminoethylamino)-3-(trifluoromethyl)phenoxy]-3-(3-aminopropyl)phenyl]carbamoylamino]-2-[(3R)-pyrrolidin-3-yl]oxy-5-(trifluoromethyl)phenyl]-5-guanidino-pentanamide] | 409 (≈ 513 µM) | 256 (≈ 321 µM) |  |  |  |  | 
2 |  |  |  |  |  | 25 (≈ 69.6 µM) | 7.5 (≈ 20.9 µM) | 25 (≈ 69.6 µM) | 25 (≈ 69.6 µM) | 6.25 (≈ 17.4 µM) | NCC#Cc1cc(-n2ccc3cc([N+](=O)[O-])ccc32)cc(C(F)(F)F)c1 [Compound 115] | 74.3 (≈ 207 µM) | 43.3 (≈ 121 µM) |  |  |  |  | 
3 | 1.56 (≈ 2.1 µM) | 3.13 (≈ 4.21 µM) | 0.78 (≈ 1.05 µM) | 1.56 (≈ 2.1 µM) | 0.195 (≈ 0.262 µM) |  |  |  |  |  | N=C(N)NCCCCC(=O)Nc1cc(C(F)(F)F)cc(NC(=O)Nc2ccc(Oc3cc(NCCCN)cc(C(F)(F)F)c3)cc2)c1SCCN [Compound 105, (4-(2-(2-aminoethylthio)-3-(3-(4-(3-(3-aminopropylamino)-5-(trifluoromethyl)phenoxy)phenyl)ureido)-5-(trifluoromethyl)phenylcarbamoyl)butyl)guanidine] | 40 (≈ 53.8 µM) | 49.4 (≈ 66.4 µM) |  |  |  |  | 
4 | 3.13 (≈ 4.49 µM) | 12.5 (≈ 17.9 µM) | 12.5 (≈ 17.9 µM) | 12.5 (≈ 17.9 µM) | 0.78 (≈ 1.12 µM) |  |  |  |  |  | N=C(N)NCCCCC(=O)Nc1cc(C(F)(F)F)cc(NC(=O)Nc2ccc(Oc3cc(N)cc(C(F)(F)F)c3)cc2)c1O[C@@H]1CCNC1 [Compound 103, (4-(2-((R)-pyrrolidin-3-yloxy)-3-(3-(4-(3-amino-5-(trifluoromethyl)phenoxy)phenyl)ureido)-5-(trifluoromethyl)phenylcarbamoyl)butyl)guanidine] |  |  |  |  |  |  | 
5 | 3.13 (≈ 3.98 µM) | 6.25 (≈ 7.94 µM) | 1.56 (≈ 1.98 µM) | 3.13 (≈ 3.98 µM) | 3.13 (≈ 3.98 µM) |  |  |  |  |  | N=C(N)NCCCCC(=O)Nc1cc(C(F)(F)F)cc(NC(=O)Nc2ccc(Oc3ccc(NCCN)c(C(F)(F)F)c3)c(CCCN)c2)c1SCCN [Compound 108, N-[3-[[4-[4-(2-aminoethylamino)-3-(trifluoromethyl)phenoxy]-3-(3-aminopropyl)phenyl]carbamoylamino]-2-(2-aminoethylsulfanyl)-5-(trifluoromethyl)phenyl]-5-guanidino-pentanamide] | 395 (≈ 502 µM) | 186 (≈ 236 µM) |  |  |  |  | 
6 | 1.56 (≈ 1.53 µM) | 25 (≈ 24.5 µM) | 1.56 (≈ 1.53 µM) | 3.13 (≈ 3.06 µM) | 0.098 (≈ 0.0959 µM) |  |  |  |  |  | N=C(N)NCCCCC(=O)Nc1cc(C(F)(F)F)cc(NC(=O)Nc2ccc3nc(NC(=O)Nc4cc(C(F)(F)F)cc(NC(=O)CCCCNC(=N)N)c4O[C@@H]4CCNC4)sc3c2)c1O[C@@H]1CCNC1 [Compound 112, 5-guanidino-N-[3-[[2-[[3-(5-guanidinopentanoylamino)-2-[(3R)-pyrrolidin-3-yl]oxy-5-(trifluoromethyl)phenyl]carbamoylamino]-1,3-benzothiazol-6-yl]carbamoylamino]-2-[(3R)-pyrrolidin-3-yl]oxy-5-(trifluoromethyl)phenyl]pentanamide] | 105 (≈ 103 µM) | 52.5 (≈ 51.4 µM) |  |  |  |  | 
7 | 3.13 (≈ 4.24 µM) | 6.25 (≈ 8.46 µM) | 12.5 (≈ 16.9 µM) | 12.5 (≈ 16.9 µM) | 0.39 (≈ 0.528 µM) |  |  |  |  |  | N=C(N)NCCCCC(=O)Nc1cc(C(F)(F)F)cc(NC(=O)Nc2cccc(Oc3cc(NC(=N)N)cc(C(F)(F)F)c3)c2)c1O[C@@H]1CCNC1 [Compound 116, 5-guanidino-N-[3-[[3-[3-guanidino-5-(trifluoromethyl)phenoxy]phenyl]carbamoylamino]-2-[(3R)-pyrrolidin-3-yl]oxy-5-(trifluoromethyl)phenyl]pentanamide] |  |  |  |  |  |  | 
8 | 3.13 (≈ 4.3 µM) | 6.25 (≈ 8.58 µM) | 12.5 (≈ 17.2 µM) | 12.5 (≈ 17.2 µM) | 0.39 (≈ 0.535 µM) |  |  |  |  |  | N=C(N)NCCCCC(=O)Nc1cc(C(F)(F)F)cc(NC(=O)Nc2cccc(Oc3cc(NC(=N)N)cc(C(F)(F)F)c3)c2)c1SCCN [Compound 107, N-[2-(2-aminoethylsulfanyl)-3-[[3-[3-guanidino-5-(trifluoromethyl)phenoxy]phenyl]carbamoylamino]-5-(trifluoromethyl)phenyl]-5-guanidino-pentanamide] |  |  |  |  |  |  | 
9 | 1.56 (≈ 2.1 µM) | 6.25 (≈ 8.4 µM) | 3.13 (≈ 4.21 µM) | 3.13 (≈ 4.21 µM) | 0.39 (≈ 0.524 µM) |  |  |  |  |  | N=C(N)NCCCCC(=O)Nc1cc(C(F)(F)F)cc(NC(=O)Nc2cccc(Oc3cc(NCCCN)cc(C(F)(F)F)c3)c2)c1SCCN [Compound 117] |  |  |  |  |  |  | 
10 | 3.13 (≈ 4.56 µM) | 12.5 (≈ 18.2 µM) | 6.25 (≈ 9.1 µM) | 6.25 (≈ 9.1 µM) | 0.78 (≈ 1.14 µM) |  |  |  |  |  | N=C(N)NCCCCC(=O)Nc1cc(C(F)(F)F)cc(NC(=O)Nc2ccc(Oc3cc(N)cc(C(F)(F)F)c3)cc2)c1SCCN [Compound 102, (4-(2-(2-aminoethylthio)-3-(3-(4-(3-amino-5-(trifluoromethyl)phenoxy)phenyl)ureido)-5-(trifluoromethyl)phenylcarbamoyl)butyl) guanidine] | 68 (≈ 99 µM) | 36.7 (≈ 53.4 µM) |  |  |  |  | 
11 | 6.25 (≈ 9.91 µM) | 3.13 (≈ 4.96 µM) | 1.56 (≈ 2.47 µM) | 12.5 (≈ 19.8 µM) | 1.56 (≈ 2.47 µM) |  |  |  |  |  | NCCCc1cc(NC(=O)Nc2ccc(SCCN)c(C(F)(F)F)c2)ccc1Oc1ccc(NCCN)c(C(F)(F)F)c1 [Compound 114, 1-[4-[4-(2-aminoethylamino)-3-(trifluoromethyl)phenoxy]-3-(3-aminopropyl)phenyl]-3-[4-(2-aminoethylsulfanyl)-3-(trifluoromethyl)phenyl]urea] | 238 (≈ 377 µM) | 160 (≈ 254 µM) |  |  |  |  | 
12 | 3.13 (≈ 4.15 µM) | 6.25 (≈ 8.29 µM) | 3.13 (≈ 4.15 µM) | 3.13 (≈ 4.15 µM) | 0.195 (≈ 0.259 µM) |  |  |  |  |  | N=C(N)NCCCCC(=O)Nc1cc(C(F)(F)F)cc(NC(=O)Nc2cccc(Oc3cc(NCCCN)cc(C(F)(F)F)c3)c2)c1O[C@@H]1CCNC1 [Compound 118, N-[3-[[3-[3-(3-aminopropylamino)-5-(trifluoromethyl)phenoxy]phenyl]carbamoylamino]-2-[(3R)-pyrrolidin-3-yl]oxy-5-(trifluoromethyl)phenyl]-5-guanidino-pentanamide] |  |  |  |  |  |  | 
13 |  |  |  |  |  |  |  |  |  |  | N=C(N)NCCCCC(=O)Nc1cc(C(F)(F)F)cc(NC(=O)Nc2ccc(Oc3cc([N+](=O)[O-])cc(C(F)(F)F)c3)cc2)c1O[C@@H]1CCNC1 [Compound 101, [3-[4-[[3-(5-guanidinopentanoylamino)-2-[(3R)-pyrrolidin-3-yl]oxy-5-(trifluoromethyl)phenyl]carbamoylamino]phenoxy]-5-(trifluoromethyl)phenyl]azinic acid] | > 1000 | > 1000 | > 100 | > 100 | 100 (≈ 138 µM) | 100 (≈ 138 µM) | 50 (≈ 68.8 µM)
